Several values for one entry are separate records, joined by “and”; a condition that tells them apart may be missing. Identical values can stand only once. Inconclusive results are not listed.
System: MX-1 breast xenograft, intrarenal, nude mice, tumor weight
Assay: NCI In Vivo Anticancer Drug Screen. Data for tumor model Human Mammary Carcinoma MX-1 Xenograft (intrarenal inoculation) in NU/NU BALB/C (nude) mice
Conditions: endpoint: mean tumor weight change, higher = larger tumour
Method in brief: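 Antitumor activity is expressed as a T/C ratio. The treated group's tumor size or survival is compared against the vehicle-treated control group in mice bearing transplanted tumors.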

[1] = dose: 25.0 mg/kg/injection, schedule: Q04DX003 (sc), vehicle: saline with Tween-80
[2] = dose: 50.0 mg/kg/injection, schedule: Q04DX003 (sc), vehicle: saline with Tween-80
[3] = dose: 100.0 mg/kg/injection, schedule: Q04DX003 (sc), vehicle: saline with Tween-80
[4] = dose: 100.0 mg/kg/injection, schedule: Q04DX003 (ip), vehicle: saline
[5] = dose: 200.0 mg/kg/injection, schedule: Q04DX003 (sc), vehicle: saline with Tween-80

`CCC(/C=C/C1OC(=O)C=CC1C)=C\C(C)C/C=C/C(C)=C/C(C)C(=O)C(C)C(O)C(C)C/C(C)=C/C(=O)O` (stereo unspecified) was tested, and the T/C (dose: 1.0 mg/kg/injection, schedule: Q04DX003 (ip), vehicle: saline + alcohol) was 114 % of control, the T/C (dose: 2.0 mg/kg/injection, schedule: Q04DX003 (ip), vehicle: saline + alcohol) was 109 % of control and the T/C (dose: 4.0 mg/kg/injection, schedule: Q04DX003 (ip), vehicle: saline + alcohol) was 71 % of control. The T/C (dose: 75.0 micrograms/kg/injection, schedule: Q04DX003 (ip), vehicle: saline + alcohol) was 119 % of control, the T/C (dose: 150.0 micrograms/kg/injection, schedule: Q04DX003 (ip), vehicle: saline + alcohol) was 114 % of control and the T/C (dose: 300.0 micrograms/kg/injection, schedule: Q04DX003 (ip), vehicle: saline + alcohol) was 107 % of control. For the same compound, the T/C (dose: 600.0 micrograms/kg/injection, schedule: Q04DX003 (ip), vehicle: saline + alcohol) was 102 % of control.
With `O=S(=O)(CCl)OCCCl` the T/C [1] was 90 % of control, the T/C [2] was 113 % of control and the T/C [3] was 95 % of control.
With `CCOC(=O)Nc1cc(NC(C)/C(=N/O)c2ccccc2)c([N+](=O)[O-])c(N)n1` (stereo unspecified) the T/C (dose: 18.75 mg/kg/injection, schedule: Q04DX003 (ip), vehicle: Klucel (hydroxypropylcellulose) (HPC)) was 84 % of control, the T/C (dose: 37.5 mg/kg/injection, schedule: Q04DX003 (ip), vehicle: Klucel (hydroxypropylcellulose) (HPC)) was 60 % of control and the T/C (dose: 75.0 mg/kg/injection, schedule: Q04DX003 (ip), vehicle: Klucel (hydroxypropylcellulose) (HPC)) was 72 % of control.
For `CCOc1ccc(C(C)c2cc3c(cc2OC)OCO3)cc1` (stereo unspecified), the T/C (dose: 150.0 mg/kg/injection, schedule: Q04DX003 (ip), vehicle: distilled water + Tween-80) was 93 % of control, the T/C (dose: 300.0 mg/kg/injection, schedule: Q04DX003 (ip), vehicle: distilled water + Tween-80) was 56 % of control and the T/C (dose: 600.0 mg/kg/injection, schedule: Q04DX003 (ip), vehicle: distilled water + Tween-80) was 27 % of control.
`C=C/C(C)=C/[C@H](C)C(=O)C[C@H](O)CC1CC(=O)NC(=O)C1` was tested, and the T/C (dose: 300.5 mg/kg/injection, schedule: Q04DX003 (sc), vehicle: water) was 73 % of control, the T/C (dose: 600.0 mg/kg/injection, schedule: Q04DX003 (sc), vehicle: water) was 98 % of control and the T/C (dose: 1200.0 mg/kg/injection, schedule: Q04DX003 (sc), vehicle: water) was 89 % of control.
With `CC(C)NC(=O)N(CCCCBr)N=O` the T/C (dose: 150.0 mg/kg/injection, schedule: Q04DX003 (sc), vehicle: Klucel (hydroxypropylcellulose) (HPC)) was -61 % of control and the T/C (dose: 300.0 mg/kg/injection, schedule: Q04DX003 (sc), vehicle: Klucel (hydroxypropylcellulose) (HPC)) was -100 % of control.
In the case of `C[n+]1c(-c2ccc(NC(=O)c3ccc(C(=O)Nc4ccc(-c5cn6ccccc6[n+]5C)cc4)cc3)cc2)cn2ccccc21`, the T/C (dose: 12.5 mg/kg/injection, schedule: Q04DX003 (ip), vehicle: saline with Tween-80) was 41 % of control.
In the case of `O=S(=O)(O)O.[NH-]C1CCCCC1[NH-].[Pt+2]` (stereo unspecified), the T/C (dose: 0.63 mg/kg/injection, schedule: Q01DX010 (sc), vehicle: dextrose) was 81 % of control, the T/C (dose: 1.25 mg/kg/injection, schedule: Q01DX010 (sc), vehicle: dextrose) was 41 % of control and the T/C (dose: 2.5 mg/kg/injection, schedule: Q01DX010 (sc), vehicle: dextrose) was 6 % of control.
`CCOC(=O)c1ccc(NN=NCCF)cc1` was tested, and the T/C (dose: 150.0 mg/kg/injection, schedule: Q04DX003 (ip), vehicle: distilled water + Tween-80 + alcohol) was 99 % of control, the T/C (dose: 300.0 mg/kg/injection, schedule: Q04DX003 (ip), vehicle: distilled water + Tween-80 + alcohol) was 89 % of control and the T/C (dose: 600.0 mg/kg/injection, schedule: Q04DX003 (ip), vehicle: distilled water + Tween-80 + alcohol) was 84 % of control. For the same compound, the T/C (dose: 1200.0 mg/kg/injection, schedule: Q04DX003 (ip), vehicle: distilled water + Tween-80 + alcohol) was 49 % of control.
With `CN1C2CCC1C(Br)C(=O)C2` (stereo unspecified) the T/C [4] was 100 % of control and the T/C (dose: 200.0 mg/kg/injection, schedule: Q04DX003 (ip), vehicle: saline) was 66 % of control.
`O=C1N[C@H]2[C@H](CS[C@H]2CCCCC(=O)N(CCP(c2ccccc2)c2ccccc2)CCP(c2ccccc2)c2ccccc2)N1` was tested, and the T/C (dose: 600.0 mg/kg/injection, schedule: Q04DX003 (sc), vehicle: Klucel (hydroxypropylcellulose) (HPC)) was 108 % of control, the T/C (dose: 1200.0 mg/kg/injection, schedule: Q04DX003 (sc), vehicle: Klucel (hydroxypropylcellulose) (HPC)) was 97 % of control and the T/C (dose: 2400.0 mg/kg/injection, schedule: Q04DX003 (sc), vehicle: Klucel (hydroxypropylcellulose) (HPC)) was 115 % of control.
In the case of `NCCSC(C[N+](=O)[O-])c1ccccc1Cl` (stereo unspecified), the T/C (dose: 25.0 mg/kg/injection, schedule: Q04DX003 (ip), vehicle: saline) was 86 % of control, the T/C (dose: 50.0 mg/kg/injection, schedule: Q04DX003 (ip), vehicle: saline) was 86 % of control and the T/C [4] was 85 % of control.
With `C[C@H]1C[C@@H]2[C@H]([C@@H](O)C[C@@]3(C)[C@H]2CC[C@]3(O)C(=O)CO)[C@@]2(C)C=CC(=O)C=C12` the T/C (dose: 200.0 mg/kg/injection, schedule: Q04DX003 (sc), vehicle: Klucel (hydroxypropylcellulose) (HPC)) was 37 % of control, the T/C (dose: 400.0 mg/kg/injection, schedule: Q04DX003 (sc), vehicle: Klucel (hydroxypropylcellulose) (HPC)) was 47 % of control and the T/C (dose: 800.0 mg/kg/injection, schedule: Q04DX003 (sc), vehicle: Klucel (hydroxypropylcellulose) (HPC)) was 37 % of control. The T/C (dose: 1600.0 mg/kg/injection, schedule: Q04DX003 (sc), vehicle: Klucel (hydroxypropylcellulose) (HPC)) was 19 % of control.
`CC(=O)Oc1c[nH]c(=O)[nH]c1=O` was tested, and the T/C (dose: 300.0 mg/kg/injection, schedule: Q04DX003 (sc), vehicle: distilled water + Tween-80) was 116 % of control, the T/C (dose: 600.0 mg/kg/injection, schedule: Q04DX003 (sc), vehicle: distilled water + Tween-80) was 118 % of control and the T/C (dose: 1200.0 mg/kg/injection, schedule: Q04DX003 (sc), vehicle: distilled water + Tween-80) was 102 % of control. The T/C (dose: 2400.0 mg/kg/injection, schedule: Q04DX003 (sc), vehicle: distilled water + Tween-80) was 83 % of control.
For `CCCCOCN(COCCCC)C12CC3CC(CC(C3)C1)C2`, the T/C [3] was 48 % of control, the T/C [5] was 45 % of control and the T/C (dose: 400.0 mg/kg/injection, schedule: Q04DX003 (sc), vehicle: saline with Tween-80) was 76 % of control.
In the case of `COc1cc2c(ccc3c4cc(OC)c(OC)cc4c[n+](C)c23)cc1O`, the T/C (dose: 150.0 mg/kg/injection, schedule: Q04DX003 (sc), vehicle: saline) was 83 % of control, the T/C (dose: 300.0 mg/kg/injection, schedule: Q04DX003 (sc), vehicle: saline) was 74 % of control and the T/C (dose: 600.0 mg/kg/injection, schedule: Q04DX003 (sc), vehicle: saline) was 79 % of control. For the same compound, the T/C (dose: 1200.0 mg/kg/injection, schedule: Q04DX003 (sc), vehicle: saline) was 68 % of control.
For `CCS/C(SC)=C(/c1ccccc1)[P+](c1ccccc1)(c1ccccc1)c1ccccc1`, the T/C (dose: 9.38 mg/kg/injection, schedule: Q04DX003 (sc), vehicle: Klucel (hydroxypropylcellulose) (HPC)) was 92 % of control, the T/C (dose: 18.75 mg/kg/injection, schedule: Q04DX003 (sc), vehicle: Klucel (hydroxypropylcellulose) (HPC)) was 111 % of control and the T/C (dose: 37.5 mg/kg/injection, schedule: Q04DX003 (sc), vehicle: Klucel (hydroxypropylcellulose) (HPC)) was 75 % of control.
`O=C(/C=C/c1cccnc1)/C=C/c1cccnc1` was tested, and the T/C (dose: 50.0 mg/kg/injection, schedule: Q04DX003 (ip), vehicle: Klucel (hydroxypropylcellulose) (HPC)) was 67 % of control.
With `Nc1nc2ncn(O)c2c(=O)[nH]1` the T/C (dose: 25.0 mg/kg/injection, schedule: Q04DX003 (ip), vehicle: water) was 25 % of control and 41 % of control and the T/C (dose: 50.0 mg/kg/injection, schedule: Q04DX003 (ip), vehicle: water) was 13 % of control.
In the case of `COc1cc2c[n+](C)c3c4cc5c(cc4ccc3c2cc1OC)OCO5`, the T/C [1] was 94 % of control, the T/C [2] was 116 % of control and the T/C [3] was 111 % of control. The T/C [5] was 108 % of control.
With `CC(=O)C1=C(O)C2(O)C(=O)c3c(c(C)c4ccc(C)c(O)c4c3O)CC2C(N)C1=O` (stereo unspecified) the T/C (dose: 100.0 mg/kg/injection, schedule: Q04DX003 (sc), vehicle: saline) was 89 % of control, the T/C (dose: 200.0 mg/kg/injection, schedule: Q04DX003 (sc), vehicle: saline) was 107 % of control and the T/C (dose: 400.0 mg/kg/injection, schedule: Q04DX003 (sc), vehicle: saline) was 98 % of control. The T/C (dose: 800.0 mg/kg/injection, schedule: Q04DX003 (sc), vehicle: saline) was 84 % of control.
`CCOC(=O)C1=C(Nc2ccc(OC)cc2)C(N)=NC1=N` was tested, and the T/C (dose: 37.5 mg/kg/injection, schedule: Q04DX003 (ip), vehicle: suspension in saline) was 76 % of control, the T/C (dose: 75.0 mg/kg/injection, schedule: Q04DX003 (ip), vehicle: suspension in saline) was 82 % of control and the T/C (dose: 150.0 mg/kg/injection, schedule: Q04DX003 (ip), vehicle: suspension in saline) was 79 % of control and 103 % of control. For the same compound, the T/C (dose: 300.0 mg/kg/injection, schedule: Q04DX003 (ip), vehicle: suspension in saline) was 47 % of control and 50 % of control and the T/C (dose: 600.0 mg/kg/injection, schedule: Q04DX003 (ip), vehicle: suspension in saline) was 32 % of control.

Source: PubChem BioAssay AID298 (DTP/NCI, 2004)
